From US5880092A, “Conformationally stabilized cell adhesion peptides” (La Jolla Cancer Research Foundation, priority 1995, dated 1999)
Where no end group is shown, it is not given here. [ ]: non-standard residue; d: D form. Pen = CC(C)(S)[C@H](N)C(=O)O

Legend:
[1] = system: attachment of normal rat kidney cells to vitronectin; test: Cell adhesion assay: inhibition of attachment of normal rat kidney cells to vitronectin; type: cell-based; conditions: vitronectin from human plasma coated at 12 μg/ml, peptide 0 to 10.0 mM, FIG. 2
Protocol: (§1) Fibronectin and vitronectin were purified from human plasma according to the methods of Ruoslahti et al., (1982) Meth. Enz. 82:803; and Hayman et al., (1983) PNAS 80:4003, respectively, both of which are incorporated herein by reference. The adhesion of normal rat kidney cells to fibronectin and vitronectin was assayed as described in Ruoslahti et al., Meth. Enz. supra. Briefly, 0.1 ml solution of fibronectin or vitronectin at a concentration of 12 μg/ml in 0.1M PBS was placed in each well of 96-well plastic microtiter plates and left for 2 hours at room temperature. The unattached protein was removed by washing three times with PBS.
(§2) One day before the assay, a confluent culture of normal rat kidney cells was split 1:2 using standard tissue culture trypsin. The cells were washed three times with PBS, pH 7.2. […] Before the last centrifugation, a sample was taken and cell numbers and viability by trypan blue exclusion are determined. […]
(§3) The unattached cells were removed simply by removing the medium and washing the wells. […] The cells were then fixed with 3% paraformaldehyde in PBS and stained with 1% toluidine blue, paraformaldehyde in PBS, and attached cells counted. Their number was determined using a cell counter that is capable of counting cells attached to a surface (Dynatech Laboratories, Alexandria, Va.). […]

[2] = system: attachment of normal rat kidney cells to fibronectin; test: Cell adhesion assay: inhibition of attachment of normal rat kidney cells to fibronectin; type: cell-based; conditions: fibronectin from human plasma coated at 12 μg/ml, peptide 0 to 10.0 mM, FIG. 2
Protocol: as §1, §2, §3

Substance: G[Pen]GRGDSPC (cysteine pairing not given here) [linear peptide]
- inhibition of attachment to vitronectin [1]: inhibited attachment of cells to both substrates at relatively similar concentrations
- inhibition of attachment to fibronectin [2]: inhibited attachment of cells to both substrates at relatively similar concentrations
